Here are results for four compounds from patent US11878992B2, “Crystallization of steviol glycosides” (DSM IP Assets B.V., priority 2016, dated 2024).

For series [1], the system named is Type II diabetics. The settings on record: studies suggest; cited from earlier work.
For series [2] the following is noted: suitable for use in carbonated beverages and many other foods; cited from earlier work.
The test system of series [3] is mildly hypertensive patients. Particulars: studies suggest; cited from earlier work.
The conditions of series [4]: relative to sucrose; cited from earlier work.
The nature of series [5]: solubility in washing liquid (95% ethanol). Particulars: in 95% ethanol (washing liquid). Format: physicochemical. On the procedure: The suspension of 2.5 g crystals in 100 ml water was heated to 75° C. for 10 minutes to dissolve the crystals. The solution was cooled to 20° C. at 10° C./h and incubated at this temperature overnight. The crystals formed were filtered by vacuum and washed with two cake volumes of 95% ethanol
The choice of washing liquid was because of the low rebaudioside M solubility in it. The crystals were dried at 60° C. under vacuum overnight. […] The crystals contained >95% Reb-M as determined by LC-UV and the level of all KAG was below the limit of detection of LC-MS.

The nature of series [6]: spontaneous crystallization from nanofiltration retentate. Particulars: aqueous nanofiltration retentate of fermentation broth. In kind it is physicochemical. On the procedure: The fermentation broth after laboratory scale fermentations was processed as follows: • centrifugation 30 min at 4000×g; • pH in the supernatant was adjusted to 3.5 and supernatant was heated 30 min at 70° C.; • the heated supernatant was clarified by centrifugation; • the clarified supernatant was ultrafiltrated through a membrane with 10 kDa cut-off; and • the permeate after ultrafiltration was nanofiltrated using a membrane with 150-300 Da cut-off.
Finally, 14.5 g of dried crystals were isolated out of 0.871 kg NF retentate.

The structures appear in SMILES notation.

Take `C=C1C[C@@]23CC[C@H]4[C@@](C)(CCC[C@@]4(C)C(=O)O[C@@H]4O[C@H](CO)[C@@H](O)[C@H](O)[C@H]4O)[C@@H]2CC[C@]1(O[C@@H]1O[C@H](CO)[C@@H](O)[C@H](O)[C@H]1O[C@@H]1O[C@H](CO)[C@@H](O)[C@H](O)[C@H]1O)C3` [Stevioside]: the “effect on blood glucose levels” value in series [1] is reported as “can reduce blood glucose levels”. For the same compound, the “heat and pH stability” value in series [2] was “heat and pH stable”. For the same compound, the “effect on blood pressure” value in series [3] is on record as “can reduce blood pressure”.

Turning to `C=C1C[C@@]23CC[C@H]4[C@@](C)(CCC[C@@]4(C)C(=O)O[C@@H]4O[C@H](CO)[C@@H](O)[C@H](O)[C@H]4O)[C@@H]2CC[C@]1(O[C@@H]1O[C@H](CO)[C@@H](O)[C@H](O[C@@H]2O[C@H](CO)[C@@H](O)[C@H](O)[C@H]2O)[C@H]1O[C@@H]1O[C@H](CO)[C@@H](O)[C@H](O)[C@H]1O)C3` [rebaudioside A], the “heat and pH stability” value in series [2] is “heat and pH stable”.

For `C=C1C[C@@]23CC[C@H]4[C@@](C)(CCC[C@@]4(C)C(=O)O[C@@H]4O[C@H](CO)[C@@H](O)[C@H](O)[C@H]4O[C@@H]4O[C@H](CO)[C@@H](O)[C@H](O)[C@H]4O)[C@@H]2CC[C@]1(O[C@@H]1O[C@H](CO)[C@@H](O)[C@H](O[C@@H]2O[C@H](CO)[C@@H](O)[C@H](O)[C@H]2O)[C@H]1O[C@@H]1O[C@H](CO)[C@@H](O)[C@H](O)[C@H]1O)C3` [rebaudioside D], in series [4], the “times sweeter than sucrose” value is given as “about 200 times”.

`C=C1C[C@@]23CC[C@H]4[C@@](C)(CCC[C@@]4(C)C(=O)O[C@@H]4O[C@H](CO)[C@@H](O)[C@H](O[C@@H]5O[C@H](CO)[C@@H](O)[C@H](O)[C@H]5O)[C@H]4O[C@@H]4O[C@H](CO)[C@@H](O)[C@H](O)[C@H]4O)[C@@H]2CC[C@]1(O[C@@H]1O[C@H](CO)[C@@H](O)[C@H](O[C@@H]2O[C@H](CO)[C@@H](O)[C@H](O)[C@H]2O)[C@H]1O[C@@H]1O[C@H](CO)[C@@H](O)[C@H](O)[C@H]1O)C3` [rebaudioside M]: the solubility result in series [5] was “low”. Besides, in series [6], the “concentration in the retentate of nanofiltration at which crystallization begins spontaneously” value was “exceeded 30 g/I”.
